Where a name gives a salt, the structure may show the parent alone.

For data set [1] the following is noted: 10 mg/day (5 mg twice daily); randomised, double-blind, placebo-controlled trials; cited from earlier work.
For data set [2] the following is noted: oral dosage form; cited from earlier work.
A short description of the next data set: Solubility in water. It is filed as physicochemical. The note with it: pH of about 4.0 to about 5.0.

For the compound `CN1C[C@@H]2c3ccccc3Oc3ccc(Cl)cc3[C@H]2C1` (relative stereo) [Asenapine, trans-5-chloro-2-methyl-2,3,3a,12b-tetrahydro-1H-dibenz[2,3:6,7]oxepino[4,5-c]pyrrole], in data set [1], the “efficacy in the treatment of schizophrenia as assessed by the Positive and Negative Symptoms Scale (PANSS)” value is “effective”. Also, the bioavailability in data set [2] is given as less than 1%.

Compound `CN1CC2c3ccccc3Oc3ccc(Cl)cc3C2C1` (stereo not drawn) [Asenapine maleate] showed a solubility in the data set “Solubility in water” of roughly 10000 µg/mL.
